Measurements from ChEMBL document CHEMBL1201862, “PubChem BioAssay data set” (2004).
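A five-concentration, 48-hour dose response in 96-well plates underlies each endpoint, interpolated linearly between surrounding concentrations. GI50: concentration for 50% inhibition of growth.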 Calls of active or inactive are those of the source. Rule as the data show it: active = GI50 up to about 1.1 µM and inactive = higher.

How the values were obtained:
Test in all cases: NCI anticancer screen, dose series, 48 h
786-0 = system: 786-0
A498 = system: A498
A549 = system: A549
ACHN = system: ACHN
BT-549 = system: BT-549
CAKI-1 = system: CAKI-1
CCRF-CEM = system: CCRF-CEM
COLO 205 = system: COLO 205
EKVX = system: EKVX
HCT-116 = system: HCT-116
HCT-15 = system: HCT-15
HOP-62 = system: HOP-62
HOP-92 = system: HOP-92
HT-29 = system: HT-29
Hs-578T = system: Hs-578T
IGROV-1 = system: IGROV-1
K562 = system: K562
KM12 = system: KM12
LOX IMVI = system: LOX IMVI
M14 = system: M14
MCF7 = system: MCF7
MDA-MB-231 = system: MDA-MB-231
MDA-MB-435 = system: MDA-MB-435
MDA-N = system: MDA-N
MOLT-4 = system: MOLT-4
Malme-3M = system: Malme-3M
NCI-H226 = system: NCI-H226
NCI-H23 = system: NCI-H23
NCI-H460 = system: NCI-H460
NCI-H522 = system: NCI-H522
NCI/ADR-RES = system: NCI/ADR-RES
OVCAR-3 = system: OVCAR-3
OVCAR-4 = system: OVCAR-4
OVCAR-5 = system: OVCAR-5
OVCAR-8 = system: OVCAR-8
PC-3 = system: PC-3
RPMI-8226 = system: RPMI-8226
RXF 393 = system: RXF 393
SF-268 = system: SF-268
SF-295 = system: SF-295
SF-539 = system: SF-539
SK-MEL-2 = system: SK-MEL-2
SK-MEL-5 = system: SK-MEL-5
SK-OV-3 = system: SK-OV-3
SNB-19 = system: SNB-19
SNB-75 = system: SNB-75
SR = system: SR
SW-620 = system: SW-620
T47D = system: T47D
TK-10 = system: TK-10
U-251 = system: U-251
UACC-257 = system: UACC-257
UACC-62 = system: UACC-62
UO-31 = system: UO-31

Question: `CCOC(=O)c1nc2ccc(C(F)(F)F)cc2nc1NCc1ccc(OC)cc1` was tested. Which GI50 (786-0) did it give?
Answer: The GI50 was > 100 µM (inactive).

Question: And the GI50 (A498)?
Answer: The GI50 was 58.6 µM (inactive).

Question: What about the GI50 (A549) of the same molecule?
Answer: Its GI50 is 49.4 µM (inactive).

Question: And the GI50 (ACHN)?
Answer: The GI50 was 92.5 µM (inactive).

Question: What about the GI50 (BT-549) of the same molecule?
Answer: Its GI50 is 60.4 µM (inactive).

Question: What about the GI50 (CAKI-1) of the same molecule?
Answer: The GI50 was > 100 µM (inactive).

Question: And the GI50 (CCRF-CEM)?
Answer: Its GI50 is > 100 µM (inactive).

Question: And the GI50 (COLO 205)?
Answer: The GI50 was 93.8 µM (inactive).

Question: And the GI50 (EKVX)?
Answer: The GI50 was > 100 µM (inactive).

Question: And the GI50 (HCT-116)?
Answer: Its GI50 is 53.1 µM (inactive).

Question: And the GI50 (HCT-15)?
Answer: Its GI50 is 82.8 µM.

Question: What about the GI50 (HOP-62) of the same molecule?
Answer: The GI50 was 98.9 µM (inactive).

Question: What about the GI50 (HOP-92) of the same molecule?
Answer: The GI50 was 47.5 µM (inactive).

Question: And the GI50 (HT-29)?
Answer: Its GI50 is 55.8 µM (inactive).

Question: And the GI50 (Hs-578T)?
Answer: Its GI50 is 99.5 µM (inactive).

Question: And the GI50 (IGROV-1)?
Answer: Its GI50 is > 100 µM (inactive).

Question: And the GI50 (K562)?
Answer: The GI50 was 39.5 µM (inactive).

Question: What about the GI50 (KM12) of the same molecule?
Answer: Its GI50 is 36 µM (inactive).

Question: What about the GI50 (LOX IMVI) of the same molecule?
Answer: Its GI50 is 48.6 µM (inactive).

Question: And the GI50 (M14)?
Answer: The GI50 was > 100 µM (inactive).

Question: What about the GI50 (MCF7) of the same molecule?
Answer: Its GI50 is 43.2 µM (inactive).

Question: What about the GI50 (MDA-MB-231) of the same molecule?
Answer: Its GI50 is > 100 µM (inactive).

Question: And the GI50 (MDA-MB-435)?
Answer: Its GI50 is > 100 µM (inactive).

Question: And the GI50 (MDA-N)?
Answer: Its GI50 is > 100 µM (inactive).

Question: And the GI50 (MOLT-4)?
Answer: The GI50 was 31.3 µM (inactive).

Question: What about the GI50 (Malme-3M) of the same molecule?
Answer: The GI50 was 34.4 µM (inactive).

Question: What about the GI50 (NCI-H226) of the same molecule?
Answer: Its GI50 is > 100 µM (inactive).

Question: What about the GI50 (NCI-H23) of the same molecule?
Answer: Its GI50 is 84.1 µM (inactive).

Question: And the GI50 (NCI-H460)?
Answer: Its GI50 is 28 µM (inactive).

Question: And the GI50 (NCI-H522)?
Answer: Its GI50 is 11.9 µM (inactive).

Question: And the GI50 (NCI/ADR-RES)?
Answer: Its GI50 is 68.4 µM (inactive).

Question: What about the GI50 (OVCAR-3) of the same molecule?
Answer: Its GI50 is 71.8 µM (inactive).

Question: And the GI50 (OVCAR-4)?
Answer: Its GI50 is 63.7 µM (inactive).

Question: And the GI50 (OVCAR-5)?
Answer: Its GI50 is > 100 µM (inactive).

Question: What about the GI50 (OVCAR-8) of the same molecule?
Answer: Its GI50 is > 100 µM (inactive).

Question: What about the GI50 (PC-3) of the same molecule?
Answer: The GI50 was 56.6 µM (inactive).

Question: And the GI50 (RPMI-8226)?
Answer: Its GI50 is 69.8 µM (inactive).

Question: And the GI50 (RXF 393)?
Answer: The GI50 was > 100 µM (inactive).

Question: And the GI50 (SF-268)?
Answer: Its GI50 is > 100 µM (inactive).

Question: And the GI50 (SF-295)?
Answer: Its GI50 is > 100 µM (inactive).

Question: And the GI50 (SF-539)?
Answer: The GI50 was > 100 µM (inactive).

Question: What about the GI50 (SK-MEL-2) of the same molecule?
Answer: The GI50 was 97.9 µM (inactive).

Question: And the GI50 (SK-MEL-5)?
Answer: The GI50 was 58.2 µM (inactive).

Question: What about the GI50 (SK-OV-3) of the same molecule?
Answer: The GI50 was > 100 µM (inactive).

Question: And the GI50 (SNB-19)?
Answer: The GI50 was > 100 µM (inactive).

Question: And the GI50 (SNB-75)?
Answer: The GI50 was 85.9 µM (inactive).

Question: What about the GI50 (SR) of the same molecule?
Answer: The GI50 was 28.2 µM (inactive).

Question: What about the GI50 (SW-620) of the same molecule?
Answer: Its GI50 is > 100 µM (inactive).

Question: What about the GI50 (T47D) of the same molecule?
Answer: The GI50 was 80.7 µM (inactive).

Question: What about the GI50 (TK-10) of the same molecule?
Answer: The GI50 was 71.6 µM (inactive).

Question: And the GI50 (U-251)?
Answer: Its GI50 is > 100 µM (inactive).

Question: And the GI50 (UACC-257)?
Answer: The GI50 was 74 µM (inactive).

Question: What about the GI50 (UACC-62) of the same molecule?
Answer: The GI50 was > 100 µM (inactive).

Question: What about the GI50 (UO-31) of the same molecule?
Answer: The GI50 was > 100 µM (inactive).
